Measurements: patent US20080004266A1, “Method for treating proliferative disorders associated with protooncogene products” (priority 2006, published 2008)

Test system: human acute myelogenous leukemia tumor cell line Mv 4-11
Test: Mv 4-11 (FLT3-ITD) nude mouse xenograft model
Format: in vivo, human (xenograft in nude mouse)
Conditions: for % T/C value: nude mice, 3 doses
Experimental: The human acute myelogenous leukemia (AML) cell line, Mv 4-11 (ATCC #CRL-9591), was obtained from the American Type Culture Collection (ATCC; Manassas, Va., USA). Growth of this tumor cell line is dependent upon the expression of an activated form of the FLT3 tyrosine kinase receptor carrying an internal tandem duplication (ITD) mutation, which is the most common molecular defect associated with AML (K. W. Yee et al., Blood 100:2941-2949, 2002). The cells were cultured in growth media prepared with Iscove's Modified Dulbecco's Media, 10% fetal bovine serum (FBS), 1% 100× Penicillin-Streptomycin, 1% 100× sodium pyruvate and 1% 100×MEM non-essential amino acids. FBS was obtained from ATCC and all other reagents were obtained from Invitrogen Corp. (Carlsbad, Calif., USA). Cells that had been cryopreserved in liquid nitrogen were rapidly thawed at 37° C. and transferred to a tissue culture flask containing growth media and then incubated at 37° C. in a 5% CO2 incubator. To expand the cell line, cultures were passaged 1:2 to a density of 5×10 (6) cells/ml every three days by adding an equal volume of fresh growth media. When the flasks reached a density of approximately 10×10 (6) cells/ml, the above passaging process was repeated until sufficient cells had been obtained for implantation into mice.
Seven to eight week old, female Crl:CD-1-nuBR (nude) mice were obtained from Charles River Laboratories (Wilmington, Mass., USA). Animals were housed 4-5/cage in micro-isolators, with a 12 hr/12 hr light/dark cycle, acclimated for at least 1 week prior to use and fed normal laboratory chow ad libitum. Studies were conducted on animals between 8 and 10 weeks of age at implantation. To implant Mv 4-11 tumor cells into nude mice, cell cultures were centrifuged to pellet the cells, the supernatant was aspirated, the cell pellet was resuspended in 10 ml of growth media and the cell number determined using a hemocytometer. […]
Tumors were then permitted to develop in vivo until the majority reached 100-200 mm^3 in tumor volume, which typically required 1-2 weeks following implantation. […] Tumor volumes (V) were calculated by caliper measurement of the width (W), length (L) and thickness (T) of tumors using the following formula: V=0.5236×(L×W×T). Animals were randomized into treatment groups so that the median tumor volumes of each group were similar at the start of dosing. % T/C values, as a measure of efficacy, were determined as follows: • (i) If ΔT>0: % T/C=(ΔT/ΔC)×100 • (ii) If ΔT<0: % T/C=(ΔT/T0)×100 • (iii) ΔT=Change in median tumor volume between start of dosing and the end of study. • (iv) ΔC=Change in median tumor volume between start of dosing and the end of study. • (v) T0=Median tumor volume at start of dosing. […]

[1] = 125 mg/kg i.v. 1 time per week, day 41

CC(C)c1cc(-c2nnc(O)n2-c2ccc3c(ccn3C)c2)c(O)cc1O [Compound 226, 3-(2,4-di-hydroxy-5-isopropyl-phenyl)-4-(1-methyl-indol-5-yl)-5-hydroxy-[1,2,4] triazole]
average bodyweight loss relative to the start of the study [1]: −1.4% (+/−1.6 SEM)
animals with no apparent tumors (125 mg/kg treatment group, by day 41 (end of the study)): 2 of 8
% T/C value (50 mg/kg i.v. 1 time per week, day 41): −63.8%
% T/C value [1]: −93.0%
